Test results from patent US20230085307A1, “PYRIDAZINONE COMPOUND AND HERBICIDE” (NISSAN CHEMICAL CORPORATION, priority 2019, published 2023).

Legend:
windgrass = assay: Test Example 4: herbicidal effect by soil treatment (Table 19, symbol L); assay type: in vivo, windgrass (Apera spica-venti); conditions: 320 g/ha
How it was run: (§1)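 Seeds were sown in sterilized diluvial soil and covered with about 1.5 cm of soil. An emulsion formulation diluted with water to a predetermined herbicide amount was sprayed evenly onto the soil surface. Plants grew in a greenhouse at 25° C. to 30° C., and the effect was scored three weeks after application using criteria from an earlier test.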

barnyard grass = assay: Test Example 5: herbicidal effect by foliage application, plastic box (Table 20, symbol H); assay type: in vivo, barnyard grass (Echinochloa crus-galli); conditions: foliage application, 320 g/ha, evaluated three weeks after application
How it was run: (§2)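 Plants sown in sterilized diluvial soil and grown 14 days in a greenhouse at 25° C to 30° C, then sprayed on the foliage with the compound's emulsion diluted in water to a predetermined herbicide amount. Injury to weeds and crops scored three weeks after application on a visual rating scale.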

velvetleaf = assay: Test Example 5: herbicidal effect by foliage application, plastic box (Table 20, symbol M); assay type: in vivo, velvetleaf (Abutilon theophrasti); conditions: foliage application, 320 g/ha, evaluated three weeks after application
How it was run: as §2

chickweed = assay: Test Example 5: herbicidal effect by foliage application, plastic box (Table 20, symbol P); assay type: in vivo, common chickweed (Stellaria media); conditions: foliage application, 320 g/ha, evaluated three weeks after application
How it was run: as §2

late watergrass = assay: Test Example 1: herbicidal activity, application before weed generation under submerged conditions (Table 16, symbol A); assay type: in vivo, late watergrass (Echinochloa oryzicola); conditions: 320 g/ha applied herbicide
How it was run: (§3)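 Alluvial soil was flooded to 4 cm depth, weed seeds were sown mixed and 2.5-leaf rice seedlings were transplanted. On sowing day, the compound's emulsion, diluted in water to a set dose, was applied to the water surface. Plants grew at 25–30 °C and were scored 0–5 after three weeks.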

green foxtail = assay: Test Example 5: herbicidal effect by foliage application, plastic box (Table 20, symbol G); assay type: in vivo, green foxtail (Setaria viridis); conditions: foliage application, 320 g/ha, evaluated three weeks after application
How it was run: as §2

Italian ryegrass = assay: Test Example 4: herbicidal effect by soil treatment (Table 19, symbol K); assay type: in vivo, Italian ryegrass (Lolium multiflorum); conditions: 320 g/ha
How it was run: as §1

Japanese bulrush = assay: Test Example 2: herbicidal activity, application during weed generation under submerged conditions (Table 17, symbol B); assay type: in vivo, Japanese bulrush (Schoenoplectus juncoides); conditions: AAH 320 g/ha; application during weed generation, submerged conditions
How it was run: (§4)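 Effect on each weed is rated three weeks post-treatment, using the same scoring criteria as the preceding test. Plants grow from mixed-sown seed in flooded alluvial soil (4 cm water) at 25° C. to 30° C., and are treated at one to two leaves with diluted emulsion dropped onto the water.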

persian speedwell [1] = assay: Test Example 4: herbicidal effect by soil treatment (Table 19, symbol R); assay type: in vivo, Persian speedwell (Veronica persica); conditions: 320 g/ha
How it was run: as §1

rice flat sedge = assay: Test Example 3: herbicidal effect by foliage application, Wagner pot (Table 18, symbol E); assay type: in vivo, rice flat sedge (Cyperus iria); conditions: 320 g/ha
How it was run: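 Plants were sown in alluvial soil held under 0.1–0.5 cm standing water and grown 14 days in a greenhouse at 25–30 °C. An emulsifiable formulation, water-diluted to the set dose, was then sprayed onto the foliage, and effects were scored three weeks later using previously defined criteria.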

southern crabgrass = assay: Test Example 5: herbicidal effect by foliage application, plastic box (Table 20, symbol F); assay type: in vivo, southern crabgrass (Digitaria ciliaris); conditions: foliage application, 320 g/ha, evaluated three weeks after application
How it was run: as §2

oval-leafed pondweed [2] = assay: Test Example 1: herbicidal activity, application before weed generation under submerged conditions (Table 16, symbol C); assay type: in vivo, oval-leafed pondweed (Monochoria vaginalis); conditions: 320 g/ha applied herbicide
How it was run: as §3

oval-leafed pondweed [3] = assay: Test Example 2: herbicidal activity, application during weed generation under submerged conditions (Table 17, symbol C); assay type: in vivo, oval-leafed pondweed (Monochoria vaginalis); conditions: AAH 320 g/ha; application during weed generation, submerged conditions
How it was run: as §4

redroot pigweed = assay: Test Example 5: herbicidal effect by foliage application, plastic box (Table 20, symbol N); assay type: in vivo, redroot pigweed (Amaranthus retroflexus); conditions: foliage application, 320 g/ha, evaluated three weeks after application
How it was run: as §2

wild oat = assay: Test Example 4: herbicidal effect by soil treatment (Table 19, symbol I); assay type: in vivo, wild oat (Avena fatua); conditions: 320 g/ha
How it was run: as §1

persian speedwell [4] = assay: Test Example 5: herbicidal effect by foliage application, plastic box (Table 20, symbol R); assay type: in vivo, Persian speedwell (Veronica persica); conditions: foliage application, 320 g/ha, evaluated three weeks after application
How it was run: as §2

SMILES | herbicidal effect rating, L: windgrass (windgrass) | herbicidal effect on H: barnyard grass (barnyard grass) | herbicidal effect on M: velvetleaf (velvetleaf) | herbicidal effect on P: chickweed (chickweed) | Herbicidal effect on A: late watergrass (grade 0-5) (late watergrass) | herbicidal effect on G: green foxtail (green foxtail) | herbicidal effect rating, K: Italian ryegrass (Italian ryegrass) | herbicidal effect rating, B: Japanese bulrush (Japanese bulrush) | herbicidal effect rating, R: persian speedwell (persian speedwell [1]) | herbicidal effect on E (rice flat sedge), rating 0-5 (rice flat sedge) | herbicidal effect on F: southern crabgrass (southern crabgrass) | Herbicidal effect on C: oval-leafed pondweed (grade 0-5) (oval-leafed pondweed [2]) | herbicidal effect rating, C: oval-leafed pondweed (oval-leafed pondweed [3]) | herbicidal effect on N: redroot pigweed (redroot pigweed) | herbicidal effect rating, I: wild oat (wild oat) | herbicidal effect on R: persian speedwell (persian speedwell [4])
Cc1nn(C)c(=O)c(-c2c(-c3ccc(OCc4ccccc4)cc3)sc3ccc(F)cc23)c1O [2-062] | 0 (Herbicidal rate of 5% or less (almost no effect)) | 5 (Herbicidal rate of 90% or more (almost completely withered)) | 3 (Herbicidal rate of 40% or more and less than 70%) | 5 (Herbicidal rate of 90% or more (almost completely withered)) | 4 (Herbicidal rate of 70% or more and less than 90%) | 5 (Herbicidal rate of 90% or more (almost completely withered)) | 0 (Herbicidal rate of 5% or less (almost no effect)) | 3 (Herbicidal rate of 40% or more and less than 70%) | 3 (Herbicidal rate of 40% or more and less than 70%) | 5 (Herbicidal rate of 90% or more (almost completely withered)) | 3 (Herbicidal rate of 40% or more and less than 70%) | 3 (Herbicidal rate of 40% or more and less than 70%) | 2 (Herbicidal rate of 20% or more and less than 40%) | 5 (Herbicidal rate of 90% or more (almost completely withered)) | 0 (Herbicidal rate of 5% or less (almost no effect)) | 5 (Herbicidal rate of 90% or more (almost completely withered))
CCCC(=O)Oc1c(C)nn(C)c(=O)c1-c1c(-c2ccc(OC)c(F)c2)sc2ccc(F)cc12 [2-087] | 0 (Herbicidal rate of 5% or less (almost no effect)) | 0 (Herbicidal rate of 5% or less (almost no effect)) | 5 (Herbicidal rate of 90% or more (almost completely withered)) | 5 (Herbicidal rate of 90% or more (almost completely withered)) | 5 (Herbicidal rate of 90% or more (almost completely withered)) | 0 (Herbicidal rate of 5% or less (almost no effect)) | 0 (Herbicidal rate of 5% or less (almost no effect)) | 2 (Herbicidal rate of 20% or more and less than 40%) | 5 (Herbicidal rate of 90% or more (almost completely withered)) | 5 (Herbicidal rate of 90% or more (almost completely withered)) | 0 (Herbicidal rate of 5% or less (almost no effect)) | 4 (Herbicidal rate of 70% or more and less than 90%) | 0 (Herbicidal rate of 5% or less (almost no effect)) | 4 (Herbicidal rate of 70% or more and less than 90%) | 0 (Herbicidal rate of 5% or less (almost no effect)) | 5 (Herbicidal rate of 90% or more (almost completely withered))
